Results from patent publication US20170196296A1, “Amphoteric Metal Compound-Treated Substrate And Methods For Reduction Of Body Odor Using Treated Substrates” (priority 2016, published 2017).

Assay: solubility of copper hydroxide in ammonia solutions
Format: physicochemical
Excerpt: If the substrate is desirably a keratin-based material, then the substrate is selected from materials such as wool or hair (such as alpaca hair), and the AMH compound is preferably copper hydroxide (Cu[OH]2), which can be dissolved in an ammonia solution, resulting in an aqua ammonia solution of Schweizer's reagent, Cu[NH3]4[H2O]2][OH]2. […] Standard aqua ammonia (25%) saturates at only about 3% copper hydroxide W/W, and the concentrated ammonia solution is hazardous to breathe. However, the ammonia in the aqua ammonia+copper hydroxide solution can be mostly substituted with harmless ingredients. For example, a wool substrate can be soaked in an aqueous solution which is composed of only 3% ammonia, 4% W/W of ammonium chloride and 10% W/W of sodium carbonate will also dissolve 3% copper hydroxide, and after drying, the ammonium chloride and sodium carbonate can be rinsed away. A wool substrate thus treated will retain as much copper hydroxide as a substrate treated in solution of 3% copper hydroxide (saturated solution) in aqua ammonia (25% ammonia). Upon being soaked in either formula of 3% copper hydroxide solution, the surface of the wool immediately absorbs the copper hydroxide. Excess solution is squeezed out of the substrate material, and the substrate is allowed to dry. […]

For `[OH][Cu][OH]` [Cu(OH)2, copper(ii) hydroxide], the “amount dissolved in aqueous ammonia/ammonium chloride/sodium carbonate solution” value (3% ammonia, 4% W/W ammonium chloride, 10% W/W sodium carbonate) was 3% and the “saturation concentration in standard aqua ammonia” value (aqua ammonia (25%)) was “about 3 % W/W”.
